The source made the active and inactive calls. The rule behind the calls is not given here.
Experiments:
[1] = tested on: RAW264.7; assay: Anti-inflammatory activity in mouse RAW264.7 cells assessed as inhibition of LPS-induced IL-6 mRNA level preincubated for 2 hrs followed by LPS addition measured after 6 hrs by RT-qPCR analysis; type: functional, cell-based; details: dose 1-4 µM, time 8.0 hrs
[2] = tested on: RAW264.7; assay: Anti-inflammatory activity in mouse RAW264.7 cells assessed as inhibition of LPS-induced TNF-alpha mRNA level preincubated for 2 hrs followed by LPS addition measured after 6 hrs by RT-qPCR analysis; type: functional, cell-based; details: dose 1-4 µM, time 8.0 hrs
[3] = target: Interleukin-1 receptor-associated kinase 1 (Homo sapiens) (UniProt P51617); assay: Inhibition of IRAK1 (unknown origin) at 10 uM relative to control
Sequence of Interleukin-1 receptor-associated kinase 1 (Homo sapiens) (P51617 whole entry, looked up): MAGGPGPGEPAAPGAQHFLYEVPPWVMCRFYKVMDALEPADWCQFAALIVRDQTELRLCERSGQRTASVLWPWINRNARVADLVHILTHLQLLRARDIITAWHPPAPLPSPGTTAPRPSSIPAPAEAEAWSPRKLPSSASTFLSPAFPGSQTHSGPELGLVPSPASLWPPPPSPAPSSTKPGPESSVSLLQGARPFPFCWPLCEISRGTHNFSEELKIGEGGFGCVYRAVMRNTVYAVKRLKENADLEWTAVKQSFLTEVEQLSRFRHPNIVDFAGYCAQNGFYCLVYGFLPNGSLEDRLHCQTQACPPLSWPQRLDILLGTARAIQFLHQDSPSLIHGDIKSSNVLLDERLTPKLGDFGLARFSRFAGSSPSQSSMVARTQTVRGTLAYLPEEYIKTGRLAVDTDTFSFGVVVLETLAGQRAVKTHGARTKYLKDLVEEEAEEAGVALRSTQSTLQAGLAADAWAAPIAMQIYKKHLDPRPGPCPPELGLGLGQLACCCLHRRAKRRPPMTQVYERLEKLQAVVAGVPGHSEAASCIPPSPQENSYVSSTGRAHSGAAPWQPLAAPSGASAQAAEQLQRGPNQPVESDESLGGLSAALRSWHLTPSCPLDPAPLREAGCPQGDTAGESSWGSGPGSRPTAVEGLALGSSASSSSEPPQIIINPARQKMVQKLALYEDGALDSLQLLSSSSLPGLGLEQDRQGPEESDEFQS

[4] = target: Mitogen-activated protein kinase 9 (Homo sapiens) (UniProt P45984); assay: Inhibition of JNK2 (unknown origin) at 10 uM relative to control
Sequence of Mitogen-activated protein kinase 9 (Homo sapiens) (P45984 whole entry, looked up): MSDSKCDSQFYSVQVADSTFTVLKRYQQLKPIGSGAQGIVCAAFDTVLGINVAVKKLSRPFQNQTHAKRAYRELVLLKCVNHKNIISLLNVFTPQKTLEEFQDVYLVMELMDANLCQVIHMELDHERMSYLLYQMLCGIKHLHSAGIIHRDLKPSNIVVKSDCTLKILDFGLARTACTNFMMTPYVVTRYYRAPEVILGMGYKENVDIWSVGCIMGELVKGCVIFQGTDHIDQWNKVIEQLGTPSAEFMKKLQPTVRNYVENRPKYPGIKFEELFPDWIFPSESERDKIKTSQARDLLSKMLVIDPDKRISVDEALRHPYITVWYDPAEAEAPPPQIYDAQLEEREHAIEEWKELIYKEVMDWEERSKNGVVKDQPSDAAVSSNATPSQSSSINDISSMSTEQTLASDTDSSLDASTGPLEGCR

[5] = target: Mitogen-activated protein kinase 14 (Homo sapiens) (UniProt Q16539); assay: Inhibition of p38-alpha (unknown origin) at 10 uM relative to control
Sequence of Mitogen-activated protein kinase 14 (Homo sapiens) (Q16539 whole entry): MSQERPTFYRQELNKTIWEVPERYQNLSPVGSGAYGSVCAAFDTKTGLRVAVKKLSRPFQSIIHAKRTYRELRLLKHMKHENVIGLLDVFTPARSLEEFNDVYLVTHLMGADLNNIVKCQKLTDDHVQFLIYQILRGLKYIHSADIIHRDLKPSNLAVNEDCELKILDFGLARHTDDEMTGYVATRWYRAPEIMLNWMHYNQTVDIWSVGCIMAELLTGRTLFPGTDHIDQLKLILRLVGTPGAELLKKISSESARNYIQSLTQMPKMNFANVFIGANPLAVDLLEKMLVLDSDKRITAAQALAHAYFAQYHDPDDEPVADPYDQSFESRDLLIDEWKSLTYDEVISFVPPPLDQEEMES

[6] = tested on: Mus musculus; assay: Anti-inflammatory activity in C57BL/6 mouse model of LPS-induced ALI assessed as inhibition of IL-6 level in BALF at 20 mg/kg, po measured after 6 hrs with administered on every 12 hrs followed by LPS treatment after 30 mins post-compound treatment by ELISA; type: functional, organism-based; details: time 6.5 hrs
[7] = tested on: Mus musculus; assay: Anti-inflammatory activity in C57BL/6 mouse model of LPS-induced ALI assessed as decrease in lung wet to dry ratio at 20 mg/kg, po measured after 6 hrs with administered on every 12 hrs followed by LPS treatment after 30 mins post-compound treatment; type: functional, organism-based; details: time 6.5 hrs
[8] = tested on: Mus musculus; assay: (§1) Anti-inflammatory activity in C57BL/6 mouse model of LPS-induced ALI assessed as decrease in thickening of alveolar septa in lung tissue at 20 mg/kg, po measured after 6 hrs with administered on every 12 hrs followed by LPS treatment after 30 mins post-compound treatment by H and E/IHC staining based analysis; type: functional, organism-based; details: time 6.5 hrs
[9] = tested on: Mus musculus; assay: as §1, with “interstitial edema” for “alveolar septa”; type: functional, organism-based; details: time 6.5 hrs
[10] = tested on: Mus musculus; assay: Anti-inflammatory activity in C57BL/6 mouse model of DSS-induced ulcerative colitis assessed as colon length at 20 mg/kg, po administered for 8 days (reference value: 5.1 cm); type: functional, organism-based; details: time 8.0 day
[11] = tested on: Mus musculus; assay: Anti-inflammatory activity in C57BL/6 mouse model of DSS-induced ulcerative colitis assessed as decrease in spleen weight at 20 to 40 mg/kg, po administered for 8 days; type: functional, organism-based; details: dose 20-40 mg/kg, time 8.0 day
[12] = tested on: Mus musculus; assay: Anti-inflammatory activity in C57BL/6 mouse model of DSS-induced ulcerative colitis assessed as decrease in hyperplasia in white pulp of spleen administered orally for 8 days; type: functional, organism-based; details: dose 20-40 mg/kg, route po, time 8.0 day
[13] = tested on: Mus musculus; assay: Anti-inflammatory activity in C57BL/6 mouse model of DSS-induced ulcerative colitis assessed as decrease in fusion of white pulp of spleen administered orally for 8 days; type: functional, organism-based; details: dose 20-40 mg/kg, route po, time 8.0 day
[14] = Acute toxicity in C57BL/6 mouse assessed as change in physiological state at 100 to 200 mg/kg, po measured for 10 days; type: organism-based; details: in vivo, 240 h, dose 100-200 mg/kg, time 10 day
[15] = Acute toxicity in C57BL/6 mouse assessed as change in body weight change at 100 to 200 mg/kg, po measured for 10 days; type: organism-based; details: in vivo, 240 h, dose 100-200 mg/kg, time 10 day
[16] = AUC (0 to t) in Sprague-Dawley rat at 1 mg/kg, iv measured for 24 hrs; type: ADME, organism-based; details: in vivo
[17] = Tmax in Sprague-Dawley rat at 1 mg/kg, iv measured for 24 hrs; type: ADME, organism-based; details: in vivo
[18] = Cmax in Sprague-Dawley rat at 1 mg/kg, iv measured for 24 hrs; type: ADME, organism-based; details: in vivo
[19] = AUC (0 to t) in Sprague-Dawley rat at 10 mg/kg, po measured for 24 hrs; type: ADME, organism-based; details: in vivo
[20] = Half life in Sprague-Dawley rat at 10 mg/kg, po measured for 24 hrs; type: ADME, organism-based; details: in vivo
[21] = Cmax in Sprague-Dawley rat at 10 mg/kg, po measured for 24 hrs; type: ADME, organism-based; details: in vivo
[22] = Oral bioavailability in Sprague-Dawley rat at 10 mg/kg measured for 24 hrs; type: ADME, organism-based; details: in vivo
[23] = tested on: RAW264.7; assay: cells; details: Mus musculus
Description: Anti-inflammatory activity in mouse RAW264.7 cells assessed as inhibition of LPS-induced IL-6 level preincubated for 30 mins followed by LPS addition measured after 24 hrs by ELISA

[24] = tested on: J774.A1; assay: cells; details: Mus musculus
Description: Anti-inflammatory activity in mouse J774.A1 cells assessed as inhibition of LPS-induced IL-6 level preincubated for 30 mins followed by LPS addition measured after 24 hrs by ELISA

[25] = tested on: J774.A1; assay: cells; details: Mus musculus; remark: listed apart in the source
Description: Anti-inflammatory activity in mouse J774.A1 cells assessed as inhibition of LPS-induced TNF-alpha level preincubated for 30 mins followed by LPS addition measured after 24 hrs by ELISA

[26] = tested on: THP-1; assay: cells; details: Homo sapiens
Description: Anti-inflammatory activity in human THP-1 cells assessed as inhibition of LPS-induced IL-6 level preincubated for 30 mins followed by LPS addition measured after 24 hrs by ELISA

COc1cc2c(O[C@H]3CC[C@@H](N)CC3)ncnc2cc1OCc1cccc(Br)c1
inhibition [1]: Dose-dependent-effect
inhibition [2]: Dose-dependent-effect
inhibition [3]: 88.2%
inhibition [4]: 2.49%
inhibition [5]: 31.4%
inhibition [6]: Active
Activity [7]: Active
Activity [8]: Active
Activity [9]: Active
Activity [10]: Active
Activity [11]: Active; Activity Was Comparable To 5-Asa
Activity [12]: Dose-dependent-effect
Activity [13]: Dose-dependent-effect
Activity [14]: Non-toxic
Activity [15]: Non-toxic
AUC(0-t) at 24 h [16]: 7730 ng·h/mL
Tmax [17]: 4.8 min
Cmax [18]: 7280 ng/mL
AUC(0-t) at 24 h [19]: 4270 ng·h/mL
half-life [20]: 3 h
Cmax [21]: 856 ng/mL
bioavailability [22]: 5.5%
IC50 [23]: 480 nM
IC50 [24]: 1500 nM
IC50 [25]: 1330 nM
IC50 [26]: 960 nM

Reference: ChEMBL document CHEMBL6109094, “Anti-inflammatory agents design via the fragment hybrid strategy in the discovery of compound c1 for treating ALI and UC” (Eur J Med Chem, 2025)
